The target of one data set is CaMKK1 (Homo sapiens, UniProt Q8N5S9). Put plainly: CaMKK1/2 biochemical assay, 32P radiometric kinase assay (CaMKK1). As to the method:
(§1) The following is an example of a CaMKK1/2-biochemical assay. Compounds were tested for CaMKK1/2 inhibition using a ^32P radiometric kinase assay as follows: A freshly prepared kinase reaction buffer (20 mM Hepes (pH 7.5), 10 mM MgCl2, 1 mM EGTA, 0.02% Brij35, 0.02 mg/ml BSA, 0.1 mM Na3VO4, 2 mM DTT, 1% DMSO) was treated with Myelin Basic Protein (final concentration=20 μM), CaCl2) (final concentration=1.5 mM), Calmodulin (final concentration=0.96 μM) and either CaMKK2 (final reaction concentration=120 nM) or CaMKK1 (final reaction concentration=150 nM) and gently mixed. Compounds were added as aliquots from 10 mM DMSO stock solutions such that the final compound concentration in the assay was either 10 μM, 0.5 μM or 0.2 μM. This mixture was allowed to incubate for 20 minutes at room temperature. ^32P-ATP (specific activity 10 μCi/μL) was added and the mixture was allowed to incubate for 2 hours at room temperature. The reaction mixture was spotted onto P81 ion exchange paper. The kinase activity was detected by the filter binding method.

In data set [1] the target is T1, CaMKK2 (Homo sapiens, UniProt Q96RR4). The data set can be described thus: CaMKK1/2 biochemical assay, 32P radiometric kinase assay (CaMKK2). The settings on record: for inhibition at 0.2 µM: 0.2 μM compound, read-out: CaMKK2 % inhibition @ concentrations shown, 0.2 μM; for inhibition at 0.5 µM: 0.5 μM compound, read-out: CaMKK2 % inhibition @ concentrations shown, 0.5 μM; for inhibition at 10 µM: 10 μM compound, read-out: CaMKK2 % inhibition @ concentrations shown, 10 μM. As to the method:
as §1

In data set [2] the target is T1, CaMKK2. The description is as above.
The conditions of data set [3]: despite achieving high plasma concentrations; cited from earlier work.
A further data set concerns the target T2, ArH receptor (Homo sapiens, UniProt P35869).
T2 sequence (P35869 11-848): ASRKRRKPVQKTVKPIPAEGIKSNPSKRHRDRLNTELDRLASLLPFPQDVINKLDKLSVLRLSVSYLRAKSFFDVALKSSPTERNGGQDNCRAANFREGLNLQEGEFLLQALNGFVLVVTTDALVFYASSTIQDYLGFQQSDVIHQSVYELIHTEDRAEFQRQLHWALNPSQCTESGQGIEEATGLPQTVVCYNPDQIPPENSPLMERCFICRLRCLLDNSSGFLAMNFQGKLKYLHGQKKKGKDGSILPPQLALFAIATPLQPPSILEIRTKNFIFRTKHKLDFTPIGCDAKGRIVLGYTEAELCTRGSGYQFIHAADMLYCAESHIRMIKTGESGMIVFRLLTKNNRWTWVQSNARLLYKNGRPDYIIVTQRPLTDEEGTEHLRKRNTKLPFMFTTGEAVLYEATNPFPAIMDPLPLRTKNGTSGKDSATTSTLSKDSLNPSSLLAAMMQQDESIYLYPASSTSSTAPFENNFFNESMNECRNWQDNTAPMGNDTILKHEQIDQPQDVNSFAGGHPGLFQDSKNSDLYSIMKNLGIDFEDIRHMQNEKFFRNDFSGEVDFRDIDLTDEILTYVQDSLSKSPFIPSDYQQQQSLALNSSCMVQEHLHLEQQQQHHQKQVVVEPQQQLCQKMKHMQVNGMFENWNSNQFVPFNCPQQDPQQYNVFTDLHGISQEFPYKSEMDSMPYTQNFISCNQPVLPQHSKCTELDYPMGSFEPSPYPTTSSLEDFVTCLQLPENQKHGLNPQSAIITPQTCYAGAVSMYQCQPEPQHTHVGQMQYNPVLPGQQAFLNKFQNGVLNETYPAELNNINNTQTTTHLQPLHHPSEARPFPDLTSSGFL
Particulars: cited from earlier work.

The conditions of data set [4]: cited from earlier work.
For data set [5] the following is noted: cited from earlier work. This is another data set of the same source.

SMILES strings stand for the structures.

On to `COc1ccc(/C=C/c2n[nH]c3ccc(N4CCOC4=O)cc23)cc1` [Example 31, (E)-3-(3-(4-methoxystyryl)-1H-indazol-5-yl)oxazolidin-2-one], for which the results for the IC50 on CaMKK1 and at CaMKK2 [2] were 536 nM and 33 nM, respectively. For the same molecule, on CaMKK2 [1], the inhibition at 0.2 µM was 81%.

As for `O=C1OCCN1c1ccc2[nH]nc(/C=C/c3ccccn3)c2c1` [Example 4, (E)-3-(3-(2-(pyridin-2-yl)vinyl)-1H-indazol-5-yl)oxazolidin-2-one], on CaMKK2 [1], the inhibition at 0.2 µM came out at 55%, the inhibition at 0.5 µM was found to be 81% and the inhibition at 10 µM turned out to be 98%. For the same molecule, 190 nM corresponded to half-maximal inhibition against CaMKK2 [2] (IC50).

Regarding `O=C1OCCN1c1ccc2[nH]nc(-c3cc4ccccc4[nH]3)c2c1` [Example 3, 3-(3-(1H-indol-2-yl)-1H-indazol-5-yl)oxazolidin-2-one], the concentration for half-maximal inhibition (IC50) on CaMKK1 worked out at 141 nM. At CaMKK2 [1], the inhibition at 0.2 µM turned out to be 80%, the inhibition at 0.5 µM was found to be 94% and the inhibition at 10 µM amounted to 100%. The same molecule had an IC50 on CaMKK2 [2] of 70 nM.

With `COc1cccc2cc(-c3nc([C@H]4CC[C@H](C(=O)O)CC4)n4ncnc(N)c34)[nH]c12` [OSI-027], the “tissue and tumor penetration” value in data set [3] is “poor tissue and tumor penetration”.

On to `O=C1OCCN1c1ccc2[nH]nc(-c3ccc[nH]3)c2c1` [Example 22, 3-(3-(1H-pyrrol-2-yl)-1H-indazol-5-yl)oxazolidin-2-one], for which the “Biochemical Data CaMKK1, inh @ 0.2 μM” value on CaMKK1 is reported as under 5% inh @ 0.2 μM. Further, on CaMKK2 [1], the “Biochemical Data CaMKK2, inh @ 0.2 μM” value was found to be 37% inh @ 0.2 μM and the inhibition at 0.2 µM amounted to 37%.

On to `O=C1OCCN1c1ccc2[nH]nc(-c3ccccc3)c2c1` [Example 6, 3-(3-phenyl-1H-indazol-5-yl)oxazolidin-2-one], for which the “Biochemical Data CaMKK1, inh @ 0.5 μM” value at CaMKK1 is listed as under 5% inh @ 0.5 μM. In addition, at CaMKK2 [1], the “Biochemical Data CaMKK2, inh @ 0.5 μM” value is reported as 37% inh @ 0.5 μM and the inhibition at 0.5 µM was 37%.

For the molecule `C=Cc1n[nH]c2ccc(N3CCOC3=O)cc12` [Example 8, 3-(3-vinyl-1H-indazol-5-yl)oxazolidin-2-one], the “Biochemical Data CaMKK1, inh @ 0.5 μM” value on CaMKK1 amounted to 12% inh @ 0.5 μM. At CaMKK2 [1], the “Biochemical Data CaMKK2, inh @ 0.5 μM” value is 26% inh @ 0.5 μM and the inhibition at 0.5 µM was 26%.

In the case of `O=C1CCCCN1c1ccc2[nH]nc(-c3cc4ccccc4[nH]3)c2c1` [Example 41, 1-(3-(1H-indol-2-yl)-1H-indazol-5-yl)piperidin-2-one], the “Biochemical Data CaMKK1, inh @ 0.2 μM” value on CaMKK1 is under 5% inh @ 0.2 μM. On CaMKK2 [1], the “Biochemical Data CaMKK2, inh @ 0.2 μM” value is on record as 12% inh @ 0.2 μM and the inhibition at 0.2 µM was determined as 12%.

As to `O=C(O)c1n[nH]c2ccc(N3CCOC3=O)cc12` [CL-628], the “Biochemical Data CaMKK1, inh @ 0.5 μM” value at CaMKK1 is given as under 5% inh @ 0.5 μM. Moreover, the “Biochemical Data CaMKK2, inh @ 0.5 μM” value at CaMKK2 [1] is listed as 22% inh @ 0.5 μM.

In the case of `O=C(O)c1ccc2c3c1cccc3c(=O)n1c3ccccc3nc21` [STO-609], the “agonist of the ArH receptor” value at ArH receptor is reported as 43 nM. In addition, the permeability entry in data set [4] is recorded as “poor permeability”. In data set [5] (9.4 mg/kg ip dose), the brain entry result was “fails to enter the brain” and the plasma concentrations was over 30 µM. Besides, the “tissue Cmax values” in data set [5] (tissue penetration, 9.4 mg/kg ip) is at most 1 µM. The “elimination completed in” value in data set [5] (tissues) was ≤ 8 h (h).

Regarding `O=C1OCCCN1c1ccc2[nH]nc(-c3cc4ccccc4[nH]3)c2c1` [Example 40, 3-(3-(1H-indol-2-yl)-1H-indazol-5-yl)-1,3-oxazinan-2-one], the “Biochemical Data CaMKK1, inh @ 0.2 μM” value on CaMKK1 was under 5% inh @ 0.2 μM. Moreover, at CaMKK2 [1], the “Biochemical Data CaMKK2, inh @ 0.2 μM” value is reported as 37% inh @ 0.2 μM and the inhibition at 0.2 µM came to 37%.

Take `O=C1OCCN1c1ccc2[nH]nc(-c3cccc(-c4ccccc4)c3)c2c1` [Example 26, 3-(3-([1,1′-biphenyl]-3-yl)-1H-indazol-5-yl)oxazolidin-2-one]: the “Biochemical Data CaMKK1, inh @ 0.2 μM” value at CaMKK1 is listed as under 5% inh @ 0.2 μM. At CaMKK2 [1], the “Biochemical Data CaMKK2, inh @ 0.2 μM” value is recorded as 36% inh @ 0.2 μM and the inhibition at 0.2 µM amounted to 36%.

With `O=C1OCCN1c1ccc2[nH]nc(-c3cccc4ccccc34)c2c1` [CL-666], the “Biochemical Data CaMKK1, inh @ 0.2 μM” value at CaMKK1 was under 5% inh @ 0.2 μM. On CaMKK2 [1], the “Biochemical Data CaMKK2, inh @ 0.2 μM” value is listed as 15% inh @ 0.2 μM.

By IC50 is commonly meant the concentration that gives 50% inhibition. A low value points to greater potency in that assay.

(Values after patent publication US11396505B2, “Inhibitors of CaMKK2 and uses of same” (New York University, priority 2019, dated 2022).)
